# In article PMC7734625, “Stabilization Strategies for Linear Minigastrin Analogues: Further Improvements via the Inclusion of Proline into the Peptide Sequence” (Journal of Medicinal Chemistry, 2020):
# Read-outs that look alike come from different tables or passages of the source. Non-standard residues stand in square brackets, D forms with d. Residues, ends and D or L forms follow the SMILES beside them. *: point of attachment. DOTA = O=C(O)CN1CCN(CC(=O)O)CCN(CC(=O)*)CCN(CC(=O)O)CC1; 1Nal = N[C@@H](Cc1cccc2ccccc12)C(=O)O; NMeNle = CCCC[C@H](NC)C(=O)O
# Assay: biodistribution in A431-CCK2R/A431-mock xenografted BALB/c nude mice
# Type: in vivo
# Conditions: female, athymic BALB/c nude, mouse, iv, total radioactivity; for tissue to tissue ratio at 4 h / tissue uptake at 4 h: 4 h p.i.; for tissue uptake at 12 h / tissue to tissue ratio at 12 h: 12 h p.i.
# Method: Biodistribution studies evaluating the tumor uptake of the radiolabeled peptides were performed in 7- to 9-week-old female athymic BALB/c nude mice (Charles River, Sulzfeld, Germany). For the induction of tumor xenografts, 150 μL of DMEM containing 2 × 10^6 A431-CCK2R and A431-mock cells were injected subcutaneously in the right and left flank of each mouse, respectively. And 10–14 days after injection, tumors reached a medium weight of ∼0.25 g. The mice were divided into groups of four and injected intravenously via a lateral tail vein with 0.2 MBq of ^111In-labeled compound (0.02 nmol) and 0.7 and 1.5 MBq of the ^177Lu-labeled compound (0.02 and 0.15 nmol). At 4 and 12 h p.i., the mice were sacrificed and the tumors and other tissues (blood, lung, heart, muscle, spleen, intestine, liver, kidneys, stomach, and pancreas) were removed, weighed, and their radioactivity measured in the γ counter together with the rest of the body. Initial biodistribution studies were performed with the three ^177Lu-labeled CCK2R-targeting ligands at an injected peptide amount of 20 pmol for the time point of 4 h p.i. From these studies, two peptide analogues were selected to further characterize the biodistribution profile also at a later time point of 12 h p.i. and at a higher injected peptide amount of 150 pmol. Additional animal studies were performed for the ^111In-labeled conjugates. Percentage of injected activity per gram tissue (%IA/g), tumor-to-organ activity ratios, as well as whole body activity were calculated for each sample and statistical analysis using independent two-population t-test (significance level p < 0.05) was performed using Origin software. For the comparison of more than two groups, data were analyzed using one-way analysis of variance (ANOVA) Holm–Bonferroni-adjusted post hoc analysis (significance level p < 0.05) using Microsoft Excel 2010 software (Microsoft Excel 2010, Microsoft Corporation, WA).
# [1] = A431-CCK2R xenograft tumor / blood, 20 pmol, 20 pmol, read-out: tumor-to-blood ratio
# [2] = A431-CCK2R xenograft tumor / kidney, 20 pmol, 20 pmol, read-out: tumor-to-kidney ratio
# [3] = A431-CCK2R xenograft tumor / liver, 20 pmol, 20 pmol, read-out: tumor-to-liver ratio
# [4] = A431-CCK2R xenograft tumor / stomach, 20 pmol, 20 pmol, read-out: tumor-to-stomach ratio
# [5] = A431-CCK2R xenograft tumor, 20 pmol, 20 pmol, read-out: tumor uptake in A431-CCK2R xenografts
# [6] = A431-CCK2R xenograft tumor, 150 pmol, 150 pmol, read-out: tumor uptake in A431-CCK2R xenografts
# [7] = A431-mock xenograft tumor, 20 pmol, 20 pmol, read-out: uptake in A431-mock xenografts
# [8] = blood, 20 pmol, 20 pmol, read-out: uptake in blood
# [9] = heart, 20 pmol, 20 pmol, read-out: uptake in heart
# [10] = intestine, 20 pmol, 20 pmol, read-out: uptake in intestine
# [11] = intestine, 150 pmol, 150 pmol, read-out: uptake in intestine
# [12] = kidney, 20 pmol, 20 pmol, read-out: uptake in kidney
# [13] = kidney, 150 pmol, 150 pmol, read-out: uptake in kidney
# [14] = liver, 20 pmol, 20 pmol, read-out: uptake in liver
# [15] = liver, 150 pmol, 150 pmol, read-out: uptake in liver
# [16] = lung, 20 pmol, 20 pmol, read-out: uptake in lung
# [17] = lung, 150 pmol, 150 pmol, read-out: uptake in lung
# [18] = muscle, 20 pmol, 20 pmol, read-out: uptake in muscle
# [19] = muscle, 150 pmol, 150 pmol, read-out: uptake in muscle
# [20] = pancreas, 20 pmol, 20 pmol, read-out: uptake in pancreas
# [21] = pancreas, 150 pmol, 150 pmol, read-out: uptake in pancreas
# [22] = spleen, 20 pmol, 20 pmol, read-out: uptake in spleen
# [23] = stomach, 20 pmol, 20 pmol, read-out: uptake in stomach
# [24] = stomach, 150 pmol, 150 pmol, read-out: uptake in stomach
# [25] = tumor/blood, 20 pmol, 20 pmol, read-out: tumor-to-blood ratio
# [26] = tumor/blood, 150 pmol, 150 pmol, read-out: tumor-to-blood ratio
# [27] = tumor/kidney, 20 pmol, 20 pmol, read-out: tumor-to-kidney ratio
# [28] = tumor/kidney, 150 pmol, 150 pmol, read-out: tumor-to-kidney ratio
# [29] = tumor/liver, 20 pmol, 20 pmol, read-out: tumor-to-liver ratio
# [30] = tumor/liver, 150 pmol, 150 pmol, read-out: tumor-to-liver ratio
# [31] = tumor/stomach, 20 pmol, 20 pmol, read-out: tumor-to-stomach ratio
# [32] = tumor/stomach, 150 pmol, 150 pmol, read-out: tumor-to-stomach ratio
compound,measurement,setting,value
"CCCC[C@@H](C(=O)N[C@@H](CC(=O)O)C(=O)N[C@@H](Cc1cccc2ccccc12)C(N)=O)N(C)C(=O)[C@H](Cc1c[nH]c2ccccc12)NC(=O)CNC(=O)[C@H](Cc1ccc(O)cc1)NC(=O)[C@@H]1CCCN1C(=O)[C@@H](CCC(=O)O)NC(=O)CN1CCN(CC(=O)O)CCN(CC(=O)O)CCN(CC(=O)O)CC1 [[^177Lu]Lu-1, metal not drawn] ({DOTA}-[dE]PYGW[NMeNle]D[1Nal]-NH2)",tissue to tissue ratio at 4 h,[1],540 ± 103
same,tissue to tissue ratio at 4 h,[2],10
same,tissue to tissue ratio at 4 h,[3],83.3 ± 23
same,tissue to tissue ratio at 4 h,[4],5
same,tissue uptake at 4 h,[5],34.7 ± 9.4 %ID/g
same,tissue uptake at 12 h,[5],23.4 ± 8.64 %ID/g
same,tissue uptake at 4 h,[6],16.7 ± 1.48 %ID/g
same,tissue uptake at 4 h,[7],0.32 ± 0.14 %ID/g
same,tissue uptake at 12 h,[7],0.11 ± 0.02 %ID/g
same,tissue uptake at 4 h,[8],0.07 ± 0.02 %ID/g
same,tissue uptake at 12 h,[8],0.01 %ID/g
same,tissue uptake at 4 h,[9],0.09 ± 0.01 %ID/g
same,tissue uptake at 12 h,[9],0.05 ± 0.01 %ID/g
same,tissue uptake at 4 h,[10],1.14 ± 0.51 %ID/g
same,tissue uptake at 12 h,[10],0.24 ± 0.02 %ID/g
same,tissue uptake at 4 h,[11],0.61 ± 0.13 %ID/g
same,tissue uptake at 4 h,[12],3.97 ± 1.31 %ID/g
same,tissue uptake at 12 h,[12],3.12 ± 1.05 %ID/g
same,tissue uptake at 4 h,[13],4.04 ± 0.82 %ID/g
same,tissue uptake at 4 h,[14],0.42 ± 0.06 %ID/g
same,tissue uptake at 12 h,[14],0.32 ± 0.09 %ID/g
same,tissue uptake at 4 h,[15],0.49 ± 0.12 %ID/g
same,tissue uptake at 4 h,[16],0.14 ± 0.05 %ID/g
same,tissue uptake at 12 h,[16],0.11 ± 0.07 %ID/g
same,tissue uptake at 4 h,[17],0.15 ± 0.07 %ID/g
same,tissue uptake at 4 h,[18],0.06 ± 0.05 %ID/g
same,tissue uptake at 12 h,[18],0.02 ± 0.01 %ID/g
same,tissue uptake at 4 h,[19],0.05 ± 0.03 %ID/g
same,tissue uptake at 4 h,[20],2.09 ± 0.84 %ID/g
same,tissue uptake at 12 h,[20],0.76 ± 0.13 %ID/g
same,tissue uptake at 4 h,[21],0.35 ± 0.06 %ID/g
same,tissue uptake at 4 h,[22],0.18 ± 0.04 %ID/g
same,tissue uptake at 12 h,[22],0.13 ± 0.03 %ID/g
same,tissue uptake at 4 h,[23],7.37 ± 2.26 %ID/g
same,tissue uptake at 12 h,[23],4.18 ± 0.72 %ID/g
same,tissue uptake at 4 h,[24],1.26 ± 0.5 %ID/g
same,tissue to tissue ratio at 12 h,[25],2440 ± 1780
same,tissue to tissue ratio at 4 h,[26],294 ± 137
same,tissue to tissue ratio at 12 h,[27],8.14 ± 4.06
same,tissue to tissue ratio at 4 h,[28],4.25 ± 0.88
same,tissue to tissue ratio at 12 h,[29],76.8 ± 34.4
same,tissue to tissue ratio at 4 h,[30],35.9 ± 9.9
same,tissue to tissue ratio at 12 h,[31],5.54 ± 1.44
same,tissue to tissue ratio at 4 h,[32],14.9 ± 5.6
"CCCC[C@@H](C(=O)N[C@@H](CC(=O)O)C(=O)N[C@@H](Cc1cccc2ccccc12)C(N)=O)N(C)C(=O)[C@H](Cc1c[nH]c2ccccc12)NC(=O)CNC(=O)[C@@H]1CCCN1C(=O)[C@H](Cc1ccc(O)cc1)NC(=O)[C@@H](CCC(=O)O)NC(=O)CN1CCN(CC(=O)O)CCN(CC(=O)O)CCN(CC(=O)O)CC1 [[^177Lu]Lu-2, metal not drawn] ({DOTA}-[dE]YPGW[NMeNle]D[1Nal]-NH2)",tissue to tissue ratio at 4 h,[1],429 ± 134
same,tissue to tissue ratio at 4 h,[2],6.51 ± 2.29
same,tissue to tissue ratio at 4 h,[3],80.6 ± 26.5
same,tissue to tissue ratio at 4 h,[4],7.31 ± 1.84
same,tissue uptake at 4 h,[5],33.2 ± 6.34 %ID/g
same,tissue uptake at 12 h,[5],25 ± 4.92 %ID/g
same,tissue uptake at 4 h,[6],17.2 ± 5.98 %ID/g
same,tissue uptake at 4 h,[7],0.25 ± 0.06 %ID/g
same,tissue uptake at 12 h,[7],0.15 ± 0.03 %ID/g
same,tissue uptake at 4 h,"A431-mock xenograft tumor, 150 pmol, 150 pmol, read-out: uptake in A431-mock xenografts",0.33 ± 0.05 %ID/g
same,tissue uptake at 4 h,[8],0.08 ± 0.01 %ID/g
same,tissue uptake at 12 h,[8],0.01 %ID/g
same,tissue uptake at 4 h,"blood, 150 pmol, 150 pmol, read-out: uptake in blood",0.09 ± 0.01 %ID/g
same,tissue uptake at 4 h,[9],0.09 ± 0.01 %ID/g
same,tissue uptake at 12 h,[9],0.05 ± 0.01 %ID/g
same,tissue uptake at 4 h,"heart, 150 pmol, 150 pmol, read-out: uptake in heart",0.15 ± 0.05 %ID/g
same,tissue uptake at 4 h,[10],0.56 ± 0.1 %ID/g
same,tissue uptake at 12 h,[10],0.19 ± 0.02 %ID/g
same,tissue uptake at 4 h,[11],0.55 ± 0.08 %ID/g
same,tissue uptake at 4 h,[12],5.53 ± 1.51 %ID/g
same,tissue uptake at 12 h,[12],3.37 ± 0.17 %ID/g
same,tissue uptake at 4 h,[13],7.88 ± 1.26 %ID/g
same,tissue uptake at 4 h,[14],0.43 ± 0.08 %ID/g
same,tissue uptake at 12 h,[14],0.27 ± 0.03 %ID/g
same,tissue uptake at 4 h,[15],0.79 ± 0.19 %ID/g
same,tissue uptake at 4 h,[16],0.17 ± 0.01 %ID/g
same,tissue uptake at 12 h,[16],0.08 ± 0.01 %ID/g
same,tissue uptake at 4 h,[17],0.25 ± 0.04 %ID/g
same,tissue uptake at 4 h,[18],0.06 ± 0.03 %ID/g
same,tissue uptake at 12 h,[18],0.02 %ID/g
same,tissue uptake at 4 h,[19],0.1 ± 0.09 %ID/g
same,tissue uptake at 4 h,[20],1.21 ± 0.49 %ID/g
same,tissue uptake at 12 h,[20],0.82 ± 0.06 %ID/g
same,tissue uptake at 4 h,[21],0.73 ± 0.55 %ID/g
same,tissue uptake at 4 h,[22],0.16 ± 0.01 %ID/g
same,tissue uptake at 12 h,[22],0.13 ± 0.01 %ID/g
same,tissue uptake at 4 h,"spleen, 150 pmol, 150 pmol, read-out: uptake in spleen",0.28 ± 0.08 %ID/g
same,tissue uptake at 4 h,[23],4.68 ± 0.93 %ID/g
same,tissue uptake at 12 h,[23],4.12 ± 0.82 %ID/g
same,tissue uptake at 4 h,[24],1.02 ± 0.45 %ID/g
same,tissue to tissue ratio at 12 h,[25],2000 ± 750
same,tissue to tissue ratio at 4 h,[26],188 ± 80
same,tissue to tissue ratio at 12 h,[27],7.41 ± 1.33
same,tissue to tissue ratio at 4 h,[28],2.23 ± 0.87
same,tissue to tissue ratio at 12 h,[29],131 ± 37
same,tissue to tissue ratio at 4 h,[30],22.8 ± 10
same,tissue to tissue ratio at 12 h,[31],6.15 ± 1.12
same,tissue to tissue ratio at 4 h,[32],12.7 ± 4.9
